What was measured:
[1] = target: T1, IDI (isopentenyl diphosphate isomerase from Saccharomyces cerevisiae) (Saccharomyces cerevisiae, UniProt P15496); details: 50 mM MOPS, 20 mM MgCl2, 5% glycerol, pH 7.5, 30 °C (activity assay); substrate range printed as 1–1000 mmol/L
T1 construct: gene IDI1
Description: (§1) GC of isoprene released from DMAPP by acid and heat; double-reciprocal plot on IDI (isopentenyl diphosphate isomerase from Saccharomyces cerevisiae)

[2] = target: T2, IDI (isopentenyl diphosphate isomerase from Saccharomyces cerevisiae) (Saccharomyces cerevisiae, UniProt P15496, Y195F/W256C, form not given); details: 50 mM MOPS, 20 mM MgCl2, 5% glycerol, pH 7.5, 30 °C (activity assay); substrate range printed as 1–1000 mmol/L
T2 construct: gene IDI1
T2 sequence (P15496 2-288 Y195F/W256C, form open): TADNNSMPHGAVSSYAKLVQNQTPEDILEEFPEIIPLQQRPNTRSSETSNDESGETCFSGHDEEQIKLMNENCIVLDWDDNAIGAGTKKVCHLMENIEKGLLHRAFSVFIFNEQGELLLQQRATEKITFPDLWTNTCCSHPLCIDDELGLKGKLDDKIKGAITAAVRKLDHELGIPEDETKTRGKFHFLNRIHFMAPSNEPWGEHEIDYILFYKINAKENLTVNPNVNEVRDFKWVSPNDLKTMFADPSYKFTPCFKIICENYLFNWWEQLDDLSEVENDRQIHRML
Description: as §1

T1 sequence (P15496 2-288): as the sequence (P15496 2-288 Y195F/W256C, form open) above, with F194Y, C255W counted along it

Km [1]: 41.5 ± 0.39 µM
Km [2]: 37.6 ± 0.17 µM
Compound: C=C(C)CCO[P@@](=O)(O)OP(=O)(O)O [isopentenylpyrophosphate]

From article PMC5925831, “Enhancement of the catalytic activity of Isopentenyl diphosphate isomerase (IDI) from Saccharomyces cerevisiae through random and site-directed mutagenesis” (Microbial Cell Factories, 2018)
